# Read-outs that look alike come from different tables or passages of the source.
# Columns and labels:
# [1] = tested on: TNF-α secreted by synoviocyte; test: Content of TNF-α in culture supernatant of synoviocyte of RA model rats given test compound; type: in vivo; conditions: rat RA model, dose 30 mg/kg.2d; normal control 0.38 ± 0.027, NaCl 0.74 ± 0.098
# How it was run: (§1)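 Rat RA model; dosing 30 mg/kg.2d; normal and NaCl control groups. Synoviocyte culture supernatant collected; TNF-α and PGE2 measured by one established method, IL-1β by a separate method.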
# [2] = tested on: IL-1β secreted by synoviocyte; test: Content of IL-1β in culture supernatant of synoviocyte of RA model rats given test compound; type: in vivo; conditions: rat RA model, dose 30 mg/kg.2d; normal control 0.16 ± 0.034, NaCl 0.49 ± 0.136
# How it was run: as §1
# [3] = tested on: cancer stem cells; test: Survival rate of cancer stem cells after test compound is added (flow cytometry, Annexin V-FITC/PI, clinical specimen); type: cell-based, patient; conditions: Homo sapiens, 18 h
# How it was run: (§2)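 Steps: density-gradient isolation of mononuclear cells from fresh or cryopreserved clinical samples; 18-hour compound exposure at 1×10^6 cells/mL; staining for stem-cell surface markers, then Annexin V-FITC and PI; flow cytometric apoptosis analysis.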
# [4] = tested on: cancer cells; test: Survival rate of cancer cells after test compound is added (flow cytometry, Annexin V-FITC/PI, clinical specimen); type: cell-based, patient; conditions: Homo sapiens, 18 h, read-out: Survival rate (%) All cells (Stem cells and ordinary cells)
# How it was run: as §2
# [5] = tested on: PGE2 secreted by synoviocyte; test: Content of PGE2 in culture supernatant of synoviocyte of RA model rats given test compound; type: in vivo; conditions: rat RA model, dose 30 mg/kg.2d; normal control 8.34 ± 1.29, NaCl 32.44 ± 10.32
# How it was run: as §1
# [6] = Head and neck squamous cell carcinomas
structure (smiles),measurement,setting,value
CN(C)C[C@@H]1C(=O)O[C@H]2[C@H]1CCC1(CC1)[C@@H]1CCC3(CC3)[C@H]21 [Compound 27],Content of TNF-α in culture supernatant of synoviocyte (x ± s),[1],0.54 ± 0.066 ng/mL
same,Content of IL-1β in culture supernatant of synoviocyte (x ± s),[2],0.41 ± 0.047 ng/mL
same,viability at 10 µM,[3]; AML,87%
same,viability at 20 µM,[3]; AML,77%
same,viability at 10 µM,[3]; Brain glioma,84%
same,viability at 20 µM,[3]; Brain glioma,78%
same,viability at 10 µM,[3]; Brain tumor,87%
same,viability at 20 µM,[3]; Brain tumor,76%
same,viability at 10 µM,[3]; Breast cancer,84%
same,viability at 20 µM,[3]; Breast cancer,76%
same,viability at 10 µM,[3]; CLL,87%
same,viability at 20 µM,[3]; CLL,82%
same,viability at 10 µM,[3]; CML,87%
same,viability at 20 µM,[3]; CML,76%
same,viability at 10 µM,[3]; Children hepatoblastoma,82%
same,viability at 20 µM,[3]; Children hepatoblastoma,79%
same,viability at 10 µM,[3]; Colon adenocarcinoma,82%
same,viability at 20 µM,[3]; Colon adenocarcinoma,78%
same,viability at 10 µM,[3]; Colorectal cancer,85%
same,viability at 20 µM,[3]; Colorectal cancer,79%
same,viability at 10 µM,[3]; Gastric cancer,81%
same,viability at 20 µM,[3]; Gastric cancer,75%
same,viability at 10 µM,[3]; Gastrointestinal tumor,86%
same,viability at 20 µM,[3]; Gastrointestinal tumor,77%
same,viability at 10 µM,[3]; Glioma,80%
same,viability at 20 µM,[3]; Glioma,75%
same,viability at 10 µM,[3]; [6],81%
same,viability at 20 µM,[3]; [6],75%
same,viability at 10 µM,[3]; Laryngeal cancer,85%
same,viability at 20 µM,[3]; Laryngeal cancer,77%
same,viability at 10 µM,[3]; Liver cancer,86%
same,viability at 20 µM,[3]; Liver cancer,77%
same,viability at 10 µM,[3]; Lung adenocarcinoma,82%
same,viability at 20 µM,[3]; Lung adenocarcinoma,76%
same,viability at 10 µM,[3]; Lung cancer,79%
same,viability at 20 µM,[3]; Lung cancer,72%
same,viability at 10 µM,[3]; Malignant melanoma,82%
same,viability at 20 µM,[3]; Malignant melanoma,74%
same,viability at 10 µM,[3]; Nasopharynx cancer,82%
same,viability at 20 µM,[3]; Nasopharynx cancer,74%
same,viability at 10 µM,[3]; Ovarian cancer,83%
same,viability at 20 µM,[3]; Ovarian cancer,77%
same,viability at 10 µM,[3]; Pancreatic cancer,86%
same,viability at 20 µM,[3]; Pancreatic cancer,78%
same,viability at 10 µM,[3]; Prostate cancer,84%
same,viability at 20 µM,[3]; Prostate cancer,78%
same,viability at 10 µM,[3]; Retinoblastoma,85%
same,viability at 20 µM,[3]; Retinoblastoma,80%
same,viability at 10 µM,[3]; Skin cancer,85%
same,viability at 20 µM,[3]; Skin cancer,74%
same,viability at 10 µM,[4]; AML,90%
same,viability at 20 µM,[4]; AML,86%
same,viability at 10 µM,[4]; Brain glioma,91%
same,viability at 20 µM,[4]; Brain glioma,88%
same,viability at 10 µM,[4]; Brain tumor,94%
same,viability at 20 µM,[4]; Brain tumor,87%
same,viability at 10 µM,[4]; Breast cancer,88%
same,viability at 20 µM,[4]; Breast cancer,85%
same,viability at 10 µM,[4]; CLL,93%
same,viability at 20 µM,[4]; CLL,88%
same,viability at 10 µM,[4]; CML,94%
same,viability at 20 µM,[4]; CML,87%
same,viability at 10 µM,[4]; Children hepatoblastoma,88%
same,viability at 20 µM,[4]; Children hepatoblastoma,87%
same,viability at 10 µM,[4]; Colon adenocarcinoma,89%
same,viability at 20 µM,[4]; Colon adenocarcinoma,87%
same,viability at 10 µM,[4]; Colorectal cancer,93%
same,viability at 20 µM,[4]; Colorectal cancer,86%
same,viability at 10 µM,[4]; Gastric cancer,87%
same,viability at 20 µM,[4]; Gastric cancer,83%
same,viability at 10 µM,[4]; Gastrointestinal tumor,90%
same,viability at 20 µM,[4]; Gastrointestinal tumor,86%
same,viability at 10 µM,[4]; Glioma,88%
same,viability at 20 µM,[4]; Glioma,82%
same,viability at 10 µM,[4]; [6],87%
same,viability at 20 µM,[4]; [6],83%
same,viability at 10 µM,[4]; Laryngeal cancer,92%
same,viability at 20 µM,[4]; Laryngeal cancer,89%
same,viability at 10 µM,[4]; Liver cancer,90%
same,viability at 20 µM,[4]; Liver cancer,86%
same,viability at 10 µM,[4]; Lung adenocarcinoma,89%
same,viability at 20 µM,[4]; Lung adenocarcinoma,86%
same,viability at 10 µM,[4]; Lung cancer,88%
same,viability at 20 µM,[4]; Lung cancer,81%
same,viability at 10 µM,[4]; Malignant melanoma,91%
same,viability at 20 µM,[4]; Malignant melanoma,85%
same,viability at 10 µM,[4]; Nasopharynx cancer,91%
same,viability at 20 µM,[4]; Nasopharynx cancer,85%
same,viability at 10 µM,[4]; Ovarian cancer,88%
same,viability at 20 µM,[4]; Ovarian cancer,84%
same,viability at 10 µM,[4]; Pancreatic cancer,93%
same,viability at 20 µM,[4]; Pancreatic cancer,92%
same,viability at 10 µM,[4]; Prostate cancer,91%
same,viability at 20 µM,[4]; Prostate cancer,88%
same,viability at 10 µM,[4]; Retinoblastoma,94%
same,viability at 20 µM,[4]; Retinoblastoma,86%
same,viability at 10 µM,[4]; Skin cancer,94%
same,viability at 20 µM,[4]; Skin cancer,81%
same,Content of PGE2 in culture supernatant of synoviocyte (x ± s),[5],24.75 ± 2.66 ng/mL

# Reference: US10463644B2, “Uses of sesquiterpene lactone compounds and their derivatives in drugs preparation” (ACCENDATECH, priority 2013, dated 2019)
